Measurements: PubChem BioAssay (NCI)
Several values for one entry are separate records, joined by “and”; a condition that tells them apart may be missing. Identical values can stand only once.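 These data come from cells grown in 96-well plates and exposed to compound for 48 hours at five concentrations. GI50: concentration for 50% inhibition of growth. TGI: concentration producing complete growth inhibition.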

Key:
Assay in all cases: NCI tumour cell line growth inhibition, 48 h
OVCAR-8 ovarian = test system: OVCAR-8 ovarian
OVCAR-3 ovarian = test system: OVCAR-3 ovarian
NCI-H226 lung = test system: NCI-H226 lung
HCC-2998 colon = test system: HCC-2998 colon
SW-620 colon = test system: SW-620 colon
SK-MEL-2 melanoma = test system: SK-MEL-2 melanoma
UACC-62 melanoma = test system: UACC-62 melanoma
A549 NSCLC = test system: A549 NSCLC
RXF 393 renal = test system: RXF 393 renal
RPMI-8226 leukemia = test system: RPMI-8226 leukemia

Compound | GI50 (OVCAR-8 ovarian) | TGI (OVCAR-8 ovarian) | GI50 (OVCAR-3 ovarian) | TGI (OVCAR-3 ovarian) | GI50 (NCI-H226 lung) | TGI (NCI-H226 lung) | GI50 (HCC-2998 colon) | TGI (HCC-2998 colon) | GI50 (SW-620 colon) | TGI (SW-620 colon) | GI50 (SK-MEL-2 melanoma) | TGI (SK-MEL-2 melanoma) | GI50 (UACC-62 melanoma) | TGI (UACC-62 melanoma) | GI50 (A549 NSCLC) | TGI (A549 NSCLC) | GI50 (RXF 393 renal) | TGI (RXF 393 renal) | GI50 (RPMI-8226 leukemia) | TGI (RPMI-8226 leukemia)
Cc1cc(C(=O)Nc2cc(Oc3ccc4nc(NC(=O)C5CC5)cn4n3)ccc2C)n(C)n1 | > 10 µM | > 10 µM | > 10 µM | > 10 µM | 0.86 µM | > 10 µM | > 10 µM | > 10 µM | > 10 µM | > 10 µM | > 10 µM | > 10 µM | > 10 µM | > 10 µM | > 10 µM | > 10 µM | 7.46 µM | > 10 µM | > 10 µM | > 10 µM
CN(C)c1ccc(C(=N)c2ccc(N(C)C)cc2)cc1 | 3.79 µM and 3.55 µM | 19.1 µM and 28.1 µM | 1.68 µM and 1.91 µM | 5.26 µM and 7.3 µM | 7.81 µM and 9.07 µM | 51.6 µM and 47.2 µM | 6.39 µM and 7.12 µM | 33.6 µM and 32.6 µM | 1.95 µM and 2.58 µM | 20.8 µM and > 100 µM | 2.24 µM and 3.92 µM | 8.35 µM and 16.7 µM | 3.24 µM and 5.32 µM | 17.6 µM and 23.9 µM | 5.1 µM and 3.95 µM | 36.7 µM and > 100 µM | 2.93 µM and 2.86 µM | 12.2 µM and 19.3 µM | 1.8 µM and 2.28 µM | 7.43 µM and 10.9 µM
c1cc(CN2CCCNCCNCCCNCC2)ccc1CN1CCCNCCNCCCNCC1 | > 100 µM | > 100 µM | > 100 µM | > 100 µM | > 100 µM | > 100 µM | > 100 µM | > 100 µM | > 100 µM | > 100 µM | > 100 µM | > 100 µM | > 100 µM | > 100 µM | > 100 µM | > 100 µM | > 100 µM | > 100 µM | > 100 µM | > 100 µM
COc1cccc(-n2ncc3c(N/N=C/c4ccc(C)cc4)ncnc32)c1 | > 25 µM | > 25 µM | > 25 µM | > 25 µM | > 25 µM | > 25 µM | > 25 µM | > 25 µM | > 25 µM | > 25 µM | > 25 µM | > 25 µM | > 25 µM | > 25 µM | > 25 µM | > 25 µM | > 25 µM | > 25 µM | > 25 µM | > 25 µM
Nc1ncnc2c1c(-c1ccc(Oc3ccccc3)cc1)nn2C[C@H]1SSC[C@@H]1O | 0.523 µM | 15.9 µM | 0.251 µM | 0.684 µM | 1.73 µM | 5.15 µM | 3.3 µM | 27.6 µM | – | – | 0.262 µM | 2.33 µM | 0.276 µM | 0.939 µM | 0.519 µM | 6.81 µM | 1.74 µM | 5.75 µM | 4.2 µM | 20.4 µM
C#CCN(N=O)C(=O)NCCCCC(NC(=O)OCc1ccccc1)C(=O)OCc1ccccc1 (stereo not given) | – | > 100 µM | – | 53.9 µM | – | > 100 µM | – | > 100 µM | – | 31.1 µM | – | > 100 µM | – | > 100 µM | – | – | – | 81.7 µM | – | > 100 µM
C[C@]12CC[C@@H]3c4ccc(O)cc4CC[C@H]3[C@@H]1CC[C@@H]2NS(=O)(=O)c1cccc(Cl)c1 | 3.27 µM | 13.3 µM | – | – | 1.9 µM | 4.61 µM | 3.45 µM | 10.4 µM | 3.91 µM | 15 µM | 2.46 µM | 5.73 µM | 1.86 µM | 4.84 µM | 3.22 µM | 12.7 µM | 1.91 µM | 4.9 µM | 2.97 µM | 11.3 µM
